The target in data set [1] is T1, Solute carrier organic anion transporter family member 4A1 (Homo sapiens, UniProt Q96BD0).
T1 sequence (Q96BD0 whole entry): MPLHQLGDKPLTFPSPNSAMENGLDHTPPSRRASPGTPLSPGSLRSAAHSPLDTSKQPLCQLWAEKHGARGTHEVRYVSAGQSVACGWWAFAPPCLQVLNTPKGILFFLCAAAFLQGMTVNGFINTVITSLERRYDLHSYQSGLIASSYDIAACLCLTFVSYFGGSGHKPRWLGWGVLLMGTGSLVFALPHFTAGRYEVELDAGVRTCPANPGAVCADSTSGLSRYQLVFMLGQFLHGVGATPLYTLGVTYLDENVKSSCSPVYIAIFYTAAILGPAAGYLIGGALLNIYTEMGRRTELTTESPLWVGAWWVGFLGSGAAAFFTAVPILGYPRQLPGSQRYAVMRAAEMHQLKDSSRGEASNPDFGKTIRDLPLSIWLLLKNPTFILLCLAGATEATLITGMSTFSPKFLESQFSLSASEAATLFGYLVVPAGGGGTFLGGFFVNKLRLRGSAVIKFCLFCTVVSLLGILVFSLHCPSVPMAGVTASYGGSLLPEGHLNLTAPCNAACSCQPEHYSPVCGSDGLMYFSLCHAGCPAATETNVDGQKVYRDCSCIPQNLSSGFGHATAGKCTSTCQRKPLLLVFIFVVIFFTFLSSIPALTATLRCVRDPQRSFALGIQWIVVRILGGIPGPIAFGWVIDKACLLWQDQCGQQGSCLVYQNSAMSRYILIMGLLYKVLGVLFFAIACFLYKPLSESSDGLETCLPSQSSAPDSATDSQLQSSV
In words: TP_TRANSPORTER: inhibition of T3 uptake (T3: 1 uM, T4: 100 uM) in Xenopus laevis oocytes. The note with it: oocyte. In kind it is functional, cell-based.

Data set [2] has as its target T1, Solute carrier organic anion transporter family member 4A1. In words: (§1) TP_TRANSPORTER: uptake in Xenopus laevis oocytes. Type of data set: functional, cell-based. The note with it: oocyte.
For data set [3], the target named is T2, Solute carrier organic anion transporter family member 1A2 (OATP1A2, SLCO1A2) (Homo sapiens, UniProt P46721).
T2 sequence (P46721 whole entry): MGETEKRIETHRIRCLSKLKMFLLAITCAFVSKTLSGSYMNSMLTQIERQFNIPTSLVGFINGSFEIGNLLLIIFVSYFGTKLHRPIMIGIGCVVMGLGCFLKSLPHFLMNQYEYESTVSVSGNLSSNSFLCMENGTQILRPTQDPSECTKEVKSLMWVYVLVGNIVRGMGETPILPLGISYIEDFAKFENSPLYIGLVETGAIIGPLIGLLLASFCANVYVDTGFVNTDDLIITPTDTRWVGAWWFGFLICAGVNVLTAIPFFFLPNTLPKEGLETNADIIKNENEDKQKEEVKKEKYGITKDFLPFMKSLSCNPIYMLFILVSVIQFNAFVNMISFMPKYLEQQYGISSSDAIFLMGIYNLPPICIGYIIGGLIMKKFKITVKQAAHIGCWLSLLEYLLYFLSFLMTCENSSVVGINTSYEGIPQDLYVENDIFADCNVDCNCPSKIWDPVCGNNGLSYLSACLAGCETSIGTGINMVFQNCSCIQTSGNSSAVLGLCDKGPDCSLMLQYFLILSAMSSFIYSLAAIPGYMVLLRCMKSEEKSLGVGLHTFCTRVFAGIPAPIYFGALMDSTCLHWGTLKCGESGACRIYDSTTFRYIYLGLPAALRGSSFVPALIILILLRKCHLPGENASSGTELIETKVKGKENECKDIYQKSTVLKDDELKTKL
The description is as §1. The note with it: Xenopus laevis oocytes expressing the transporter.

In data set [4] the target is T1, Solute carrier organic anion transporter family member 4A1. Nature of the data set: TP_TRANSPORTER: inhibition of Taurocholate uptake (Taurochorate: 5 uM, T3: 50 uM) in Xenopus laevis oocytes. The note with it: oocyte. Type of data set: functional, cell-based.
The target is the same in data set [5]. In words: TP_TRANSPORTER: inhibition of Taurocholate uptake (Taurochorate: 5 uM, BSP: 50 uM) in Xenopus laevis oocytes. In kind it is functional, cell-based. The note with it: oocyte.
Substrate in data set [6]: N[C@@H](Cc1cc(I)c(Oc2ccc(O)c(I)c2)c(I)c1)C(=O)O
The data set is described as §1. In kind it is functional, cell-based, Oocyte.

As usually defined, the Km is the substrate concentration at which the rate is half of its maximum. For `N[C@@H](Cc1cc(I)c(Oc2cc(I)c(O)c(I)c2)c(I)c1)C(=O)O` [LEVOTHYROXINE], the Activity result was “inhibitor [(at a rough estimate) 15 % of control]” in data set [1] and “substrate [+]” in data set [2]. In addition, the Km in data set [3] stood at 8 µM.

Take `N[C@@H](Cc1cc(I)c(Oc2ccc(O)c(I)c2)c(I)c1)C(=O)O` [LIOTHYRONINE]: in data set [4], the Activity result is “inhibitor [(at a rough estimate) 30 % of control]”.

As to `N[C@@H](Cc1ccc(Oc2cc(I)c(O)c(I)c2)c(I)c1)C(=O)O` [REVERSE TRIIODOTHYRONINE], the Activity entry in data set [2] was “substrate [+]”.

For `O=C1OC(c2ccc(O)c(S(=O)(=O)[O-])c2)(c2ccc(O)c(S(=O)(=O)[O-])c2)c2c(Br)c(Br)c(Br)c(Br)c21.[Na+].[Na+]` [SULFOBROMOPHTHALEIN SODIUM], the Activity entry in data set [5] is “inhibitor [(at a rough estimate) 15 % of control]”.

B1: Solute carrier organic anion transporter family member 4A1 (Homo sapiens) (protein)
chain: T1 sequence (Q96BD0 whole entry)
On to B1, for which the Km in data set [6] was 0.9 µM.

The record behind these values is ChEMBL document CHEMBL2074485, “Identification of thyroid hormone transporters in humans: different molecules are involved in a tissue-specific manner” (Endocrinology, 2001).
